Results as given in PubChem BioAssay AID1963862 (Molecular Pharmacology Branch, DTP, NCI, 2024).

Test system: KRAS patient-derived spheroids with HUVEC/MSC, viability
Experiment: Anticancer human tumor 941728-121-R-J1-PDC patient-derived lung adenocarcinoma cell line growth inhibition [KRAS2]
Conditions: for IC50: curve of first compound; for viability, T/C: stronger effect = lower value; active means viability on the fitted dose curve at most 10% of control; inactive means the rest
Outline: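 Combination screen of spheroid viability in tumor-cell co-cultures with endothelial (HUVEC) and mesenchymal stem cell stroma. Each agent was tested in half-log dilutions, topping at clinical Cmax or at 10 microM without a known Cmax.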

[1] = second compound 0.1 µM, first compound 0.000316 µM
[2] = second compound 0.1 µM, first compound 0.001 µM
[3] = second compound 0.1 µM, first compound 0.00316 µM
[4] = second compound 0.1 µM, first compound 0.01 µM
[5] = second compound 0.1 µM, first compound 0.0316 µM
[6] = second compound 0.316 µM, first compound 0.000316 µM
[7] = second compound 0.316 µM, first compound 0.001 µM
[8] = second compound 0.316 µM, first compound 0.00316 µM
[9] = second compound 0.316 µM, first compound 0.01 µM
[10] = second compound 0.316 µM, first compound 0.0316 µM
[11] = second compound 1 µM, first compound 0.000316 µM
[12] = second compound 1 µM, first compound 0.001 µM
[13] = second compound 1 µM, first compound 0.00316 µM
[14] = second compound 1 µM, first compound 0.01 µM
[15] = second compound 1 µM, first compound 0.0316 µM
[16] = second compound 3.16 µM, first compound 0.000316 µM
[17] = second compound 3.16 µM, first compound 0.001 µM
[18] = second compound 3.16 µM, first compound 0.00316 µM
[19] = second compound 3.16 µM, first compound 0.01 µM
[20] = second compound 3.16 µM, first compound 0.0316 µM
[21] = second compound 10 µM, first compound 0.000316 µM
[22] = second compound 10 µM, first compound 0.001 µM
[23] = second compound 10 µM, first compound 0.00316 µM
[24] = second compound 10 µM, first compound 0.01 µM
[25] = second compound 10 µM, first compound 0.0316 µM
[26] = second compound 0.1 µM, first compound 0.1 µM
[27] = second compound 0.316 µM, first compound 0.1 µM
[28] = second compound 1 µM, first compound 0.1 µM
[29] = second compound 3.16 µM, first compound 0.1 µM
[30] = second compound 10 µM, first compound 0.1 µM
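Further: spheroids exposed to agents for seven days before readout.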

CC(=O)Nc1cccc(-n2c(=O)n(C3CC3)c(=O)c3c(Nc4ccc(I)cc4F)n(C)c(=O)c(C)c32)c1 + CC1OCC2(CCN(c3cnc(Sc4ccnc(N)c4Cl)c(N)n3)CC2)C1N
inactive: viability, T/C (second compound 0.1 µM, first compound 0.0001 µM) 47.1% | viability, T/C [1] 40.5% | viability, T/C [2] 40.2% | viability, T/C [3] 39.1% | viability, T/C [4] 36.4% | viability, T/C [5] 27.9% | viability, T/C (second compound 0.316 µM, first compound 0.0001 µM) 38.1% | viability, T/C [6] 39.2% | viability, T/C [7] 34.3% | viability, T/C [8] 30.9% | viability, T/C [9] 26.4% | viability, T/C [10] 23.1% | viability, T/C (second compound 1 µM, first compound 0.0001 µM) 32.4% | viability, T/C [11] 31.1% | viability, T/C [12] 24.8% | viability, T/C [13] 22% | viability, T/C [14] 21.4% | viability, T/C [15] 18.2% | viability, T/C (second compound 3.16 µM, first compound 0.0001 µM) 21.6% | viability, T/C [16] 17.2% | viability, T/C [17] 14.5% | viability, T/C [18] 15.1% | viability, T/C [19] 14.5% | viability, T/C [20] 13.6% | viability, T/C (second compound 10 µM, first compound 0.0001 µM) 15.2% | viability, T/C [21] 12.9% | viability, T/C [22] 11.8% | viability, T/C [23] 10.4% | viability, T/C [24] 12.7% | viability, T/C [25] 10.6%
< 0.1 nM: IC50 (second compound 0.1 µM) | IC50 (second compound 0.316 µM) | IC50 (second compound 1 µM) | IC50 (second compound 3.16 µM) | IC50 (second compound 10 µM)

CC(C)n1nc(-c2ccc3oc(N)nc3c2)c2c(N)ncnc21 + CC1OCC2(CCN(c3cnc(Sc4ccnc(N)c4Cl)c(N)n3)CC2)C1N
< 0.316 nM: IC50 (second compound 0.1 µM) | IC50 (second compound 0.316 µM) | IC50 (second compound 1 µM) | IC50 (second compound 3.16 µM) | IC50 (second compound 10 µM)
inactive: viability, T/C [1] 40.7% | viability, T/C [2] 30.6% | viability, T/C [3] 17.2% | viability, T/C [4] 12.1% | viability, T/C [6] 31% | viability, T/C [7] 24.8% | viability, T/C [8] 16.8% | viability, T/C [9] 11.5% | viability, T/C [11] 25.2% | viability, T/C [12] 20.3% | viability, T/C [13] 12% | viability, T/C [16] 17.6% | viability, T/C [17] 16.4% | viability, T/C [18] 9.88% | viability, T/C [21] 11.4%
active: viability, T/C [5] 8.84% | viability, T/C [26] 6.47% | viability, T/C [10] 9.93% | viability, T/C [27] 5.71% | viability, T/C [14] 8.84% | viability, T/C [15] 8.27% | viability, T/C [28] 5.69% | viability, T/C [19] 5.58% | viability, T/C [20] 3.72% | viability, T/C [29] 3.13% | viability, T/C [22] 11.2% | viability, T/C [23] 6.08% | viability, T/C [24] 4.41% | viability, T/C [25] 3.77% | viability, T/C [30] 1.91%

CC1(C)CCC(CN2CCN(c3ccc(C(=O)NS(=O)(=O)c4ccc(NCC5CCOCC5)c([N+](=O)[O-])c4)c(Oc4cnc5[nH]ccc5c4)c3)CC2)=C(c2ccc(Cl)cc2)C1 + CC1OCC2(CCN(c3cnc(Sc4ccnc(N)c4Cl)c(N)n3)CC2)C1N
< 31.6 nM: IC50 (second compound 0.1 µM) | IC50 (second compound 0.316 µM) | IC50 (second compound 1 µM) | IC50 (second compound 3.16 µM) | IC50 (second compound 10 µM)
active: viability, T/C (second compound 0.1 µM, first compound 10 µM) 2.32% | viability, T/C (second compound 0.316 µM, first compound 10 µM) 1.62% | viability, T/C (second compound 1 µM, first compound 10 µM) 2.94% | viability, T/C (second compound 3.16 µM, first compound 3.16 µM) 5.87% | viability, T/C (second compound 3.16 µM, first compound 10 µM) 1.91% | viability, T/C (second compound 10 µM, first compound 3.16 µM) 3.98% | viability, T/C (second compound 10 µM, first compound 10 µM) 0.4%
inactive: viability, T/C [5] 38.4% | viability, T/C [26] 30.5% | viability, T/C (second compound 0.1 µM, first compound 0.316 µM) 32.1% | viability, T/C (second compound 0.1 µM, first compound 1 µM) 31.2% | viability, T/C (second compound 0.1 µM, first compound 3.16 µM) 6.63% | viability, T/C [10] 32.1% | viability, T/C [27] 24.3% | viability, T/C (second compound 0.316 µM, first compound 0.316 µM) 29% | viability, T/C (second compound 0.316 µM, first compound 1 µM) 34.3% | viability, T/C (second compound 0.316 µM, first compound 3.16 µM) 5.9% | viability, T/C [15] 29% | viability, T/C [28] 26.9% | viability, T/C (second compound 1 µM, first compound 0.316 µM) 26.1% | viability, T/C (second compound 1 µM, first compound 1 µM) 27.3% | viability, T/C (second compound 1 µM, first compound 3.16 µM) 5.85% | viability, T/C [20] 28.4% | viability, T/C [29] 24.7% | viability, T/C (second compound 3.16 µM, first compound 0.316 µM) 23.7% | viability, T/C (second compound 3.16 µM, first compound 1 µM) 20.8% | viability, T/C [25] 20.1% | viability, T/C [30] 23.8% | viability, T/C (second compound 10 µM, first compound 0.316 µM) 23.2% | viability, T/C (second compound 10 µM, first compound 1 µM) 19.2%
